{
  "source": "patent US20220257631A1",
  "about": "“THERAPEUTIC RNA FOR OVARIAN CANCER” (BIONTECH SE, priority 2019, published 2022)",
  "molecules": {"B1": {"name": "RBL005.2: beta-S-ARCA(D1)-hAg-Kozak-CLDN6-2hBgUTR-A30L70 mRNA, encodes human Claudin 6 (SEQ ID NO: 3) (nucleic acid)", "chain": "GGGCGAACUAGUAUUCUUCUGGUCCCCACAGACUCAGAGAGAACCCGCCACCAUGGCCUCUGCCGGAAUGCAGAUCCUGGGCGUGGUGCUGACCCUGCUGGGCUGGGUGAAUGGCCUGGUGAGCUGUGCCCUGCCCAUGUGGAAGGUGACAGCCUUCAUUGGCAACAGCAUUGUGGUGGCCCAGGUGGUGUGGGAGGGCCUGUGGAUGAGCUGUGUGGUGCAGAGCACAGGCCAGAUGCAGUGCAAGGUGUAUGACAGCCUGCUGGCCCUGCCUCAGGACCUCCAGGCCGCCAGAGCCCUGUGUGUGAUUGCCCUGCUGGUGGCCCUGUUUGGCCUGCUGGUGUACCUGGCUGGAGCCAAGUGCACCACCUGUGUGGAGGAGAAGGACAGCAAGGCCAGACUGGUGCUGACCUCUGGCAUUGUGUUUGUGAUCUCUGGCGUGCUGACCCUGAUCCCUGUGUGCUGGACAGCCCAUGCCAUCAUCAGAGACUUCUACAACCCUCUGGUGGCCGAGGCCCAGAAAAGAGAGCUGGGAGCCAGCCUGUACCUGGGCUGGGCCGCCUCUGGCCUUCUUCUGCUGGGAGGAGGACUGCUGUGCUGCACCUGCCCCUCUGGCGGCAGCCAGGGCCCCAGCCACUACAUGGCCAGAUACAGCACCUCUGCCCCUGCCAUCAGCAGAGGCCCUUCUGAGUACCCCACCAAGAACUAUGUGUGAGGAGGAUCCCCUCGAGAGCUCGCUUUCUUGCUGUCCAAUUUCUAUUAAAGGUUCCUUUGUUCCCUAAGUCCAACUACUAAACUGGGGGAUAUUAUGAAGGGCCUUGAGCAUCUGGAUUCUGCCUAAUAAAAAACAUUUAUUUUCAUUGCUGCGUCGAGAGCUCGCUUUCUUGCUGUCCAAUUUCUAUUAAAGGUUCCUUUGUUCCCUAAGUCCAACUACUAAACUGGGGGAUAUUAUGAAGGGCCUUGAGCAUCUGGAUUCUGCCUAAUAAAAAACAUUUAUUUUCAUUGCUGCGUCGAGACCUGGUCCAGAGUCGCUAGCAAAAAAAAAAAAAAAAAAAAAAAAAAAAAAGCAUAUGACUAAAAAAAAAAAAAAAAAAAAAAAAAAAAAAAAAAAAAAAAAAAAAAAAAAAAAAAAAAAAAAAAAAAAAA", "modifications": "beta-S-ARCA cap, poly(A); CLDN6 RNA"}},
  "key": {"antigen-specific T cells": {"tested_on": "antigen-specific T cells", "assay": "IFN-γ ELISPOT of splenocytes of i.v. vaccinated A2/DR1 mice", "type": "in vivo", "details": "30 μg RNA(LIP) i.v., four to five vaccinations"}, "[1]": {"assay": "DOTMA biodistribution, LC/MS"}, "[2]": {"assay": "Respiratory safety, plethysmography (LPT No. 30283)", "details": "positive control 30 mg/kg b.w."}, "[3]": {"tested_on": "CD8+ T cells of healthy donors", "assay": "In vitro priming of CD8+ T cells with RBL005.2-transfected autologous mDCs, MHC-dextramer staining", "type": "cell-based, human", "details": "three rounds of weekly stimulation"}, "K562-A2 cells": {"tested_on": "K562-A2 cells", "assay": "TCR specificity test, IFN-γ ELISPOT with K562-A2 cells", "type": "cell-based, human"}, "human DCs": {"tested_on": "human DCs", "assay": "IFN-γ secretion of antigen-specific CD8+ T cells co-incubated with RBL005.2-electroporated DCs (Bio-plex)", "type": "cell-based", "protocol": "Antigen-specific CD8^+ T cells were co-incubated with DCs transfected with 0.25, 1, 4, or 16 μg […] different amounts of RBL005.2. As negative controls only effectors, or DCs transfected with irrelevant antigen coding RNA were used. Columns indicate means of two donors and biological duplicates.\nIn addition, we exemplarily tested the ability of the WAREHOUSE RNA drug product RBL005.2 to generate surface-expressed MHC-class I epitopes after electroporation of the RNAs into human DCs. This was determined by co-incubation of the transfected DCs for 24 h with isolated human CD8^+ T cells equipped with the α- and β-chain of a T-cell receptor (TCR) specific for the HLA-A*0201-restricted epitope […] (CLDN691.99). Activation of the antigen-specific cells was analyzed by IFN-γ Bio-plex bead assay (Bio-Rad Laboratories) of the cell culture supernatants. To consider donor variability each of the test items was analyzed using two different donors. RNA of ATM quality was used. The experiments were carried out using up to 16 μg of the RNAs to electroporate the DCs (Study Report No: STR_21591_003)."}},
  "data": [
    {"molecule": "RBL008.1: beta-S-ARCA(D1)-hAg-Kozak-sec-GS-p53-GS-MITD-2hBgUTR-A30L70 mRNA, encodes human p53 (SEQ ID NO: 7)", "values": [
      {"measurement": "Antigen-specific T-cell responses (IFN-γ ELISPOT)", "setting": "antigen-specific T cells", "value": "induced antigen-specific T-cell responses in vivo in mice expressing human HLA-molecules."}
    ]},
    {"molecule": "CCCCCCCC/C=C\\CCCCCCCCOCC(C[N+](C)(C)C)OCCCCCCCC/C=C\\CCCCCCCC", "note": "(centres unmarked) [DOTMA, 1,2-di-O-octadecenyl-3-trimethylammonium propane]", "values": [
      {"measurement": "Organ with highest DOTMA findings", "setting": "[1]; 60 μg RNA, one or two injections, 24 h", "value": "highest DOTMA findings were in the spleen"},
      {"measurement": "DOTMA distribution", "setting": "[1]; single RNA(LIP), 26 μg DOTMA, up to 28 days", "value": "predominantly found in spleen and liver"},
      {"measurement": "Factor by which DOTMA is lower in other organs/tissues than spleen and liver", "setting": "[1]; single dose", "value": "10-50"}
    ]},
    {"molecule": "RBL012.1: beta-S-ARCA(D1)-hAg-Kozak-sec-GS-PRAME-GS-MITD-2hBgUTR-A30L70 mRNA, encodes human PRAME (SEQ ID NO: 11)", "values": [
      {"measurement": "Antigen-specific T-cell responses (IFN-γ ELISPOT)", "setting": "antigen-specific T cells", "value": "induced antigen-specific T-cell responses in vivo in mice expressing human HLA-molecules."}
    ]},
    {"molecule": "CC(C[N+](C)(C)C)OC(N)=O.[Cl-]", "note": "(stereo not drawn) [Carbamyl-β-methylcholine chloride]", "values": [
      {"measurement": "Pulmonary parameters", "setting": "[2]", "value": "expected alterations"}
    ]},
    {"molecule": "B1", "values": [
      {"measurement": "CD8+ T cells binding HLA-A*02/RBL005.2 91-99 dextramer", "setting": "[3]", "value": 0.462, "unit": "%"},
      {"measurement": "Recognition of RBL005.2-transfected K562-A2 cells by isolated TCR", "setting": "K562-A2 cells", "value": "specific recognition"},
      {"measurement": "Dose dependency of IFN-γ production", "setting": "human DCs; 0.25, 1, 4, 16 μg RNA", "value": "clear dose dependency"},
      {"measurement": "IFN-γ production by antigen-specific CD8+ T cells", "setting": "human DCs; up to 16 μg RNA electroporated, 24 h, two donors", "value": "able to produce IFN-γ"},
      {"measurement": "Antigen-specific T-cell responses (IFN-γ ELISPOT)", "setting": "antigen-specific T cells", "value": "induced antigen-specific T-cell responses in vivo in mice expressing human HLA-molecules."}
    ]}
  ]
}
